In patent US20220160686A1, “MACROCYCLIC AZOLOPYRIDINE DERIVATIVES AS EED AND PRC2 MODULATORS” (Fulcrum Therapeutics, Inc., priority 2019, published 2022):
Several values for one entry are separate records, joined by “and”; a condition that tells them apart may be missing. Equal entries are not always repeated. Where two headings read alike, the source gives them in different places.

Assays:
[1] = tested on: human P-glycoprotein HEK cells (HEK-P-gp); experiment: H3K27me3 immunocytochemistry assay in P-gp expressing HEK293T cells, with or without elacridar; type: cell-based; conditions: Homo sapiens, 4 days compound treatment
Method: A plasmid encoding the human ABCB1 gene under the control of a CMV promoter was purchased from Origene (Cat #RC216080). The HEK293T cells were purchased from ATCC (Cat #CRL-3216) and were cultured for expansion in the recommended conditions. The HEK293T cells were transfected with 2 ug of the pCMV-ABCB1 plasmid using Lipofectamine 3000 following recommendations from the manufacturer (ThermoFisher Scientific, Cat #L3000008). After 24 h, cells were dissociated, and 5000 cells were seeded on a 10 cm tissue culture dish. On the next day, fresh media containing 5 nM Vinblastine (Sigma, Cat #V1377) was added, and media containing compound was replenished every 72 h. After surviving cells reached confluency, cells were passaged, and lines were maintained in the presence of 2.5 nM Vinblastine until further characterization.
P-gp expressing HEK293T, HUDEP2, and Human Mobilized Peripheral Blood Primary CD34+ cells were cultured for use in an H3K27me3 immunocytochemistry assay. HUDEP2 and Human Mobilized Peripheral Blood Primary CD34+ cells were cultured for use in an HbF immunocytochemistry assay. P-gp expressing HEK293T cells were maintained and passaged every 3-4 days by plating 300,000 viable cells in a T-25 culture flask containing 6 mLs of 293 Passaging Media comprised of DMEM (ThermoFisher #10566016), 10% fetal bovine serum (ThermoFisher #A3160502), 1% penicillin-streptomycin (ThermoFisher #15140122), and 2.5 nM Vinblastine (Sigma #V1377). To evaluate the inhibitory effect of the compounds of the present disclosure and their brain penetrant properties via P-gp mediated efflux, the H3K27me3 immunocytochemistry assay was conducted in the presence or absence of 250 nM of the P-gp inhibitor, elacridar. Poor brain penetrant compounds were expected to show higher potencies in the presence of Elacridar. However, brain penetrant compounds would show similar potencies irrespective of whether Elacridar is present or not. In these experiments plates without elacridar were seeded with P-gp expressing HEK293T cells at 1000 viable cells per well in a poly-d-lysine coated 384-well plate (Corning Cat #356697) in 45 μL of 293 Assay Media comprised of DMEM (ThermoFisher #10566016), 10% fetal bovine serum (ThermoFisher #A3160502), 1% penicillin-streptomycin (ThermoFisher #15140122). A replicate set of plates were seeded under the same conditions with 45 μL of 293 Assay Media supplemented with 250 nM of Elacridar to inhibit P-gp activity. Compounds were serially diluted at 10× concentration in 293 Media, and 5 μL transferred to their respective wells on both sets of plates for a total volume of 50 μL per well. The compound treated HEK293T cells were allowed to incubate for 4 days at 37° C., 85% relative humidity, and 5% CO2 before proceeding to ICC Fix and Stain protocol.
The Fix and Stain Protocol was the same for HEK293T, HUDEP2, and Primary CD34+ cell assays except the specific primary and secondary antibodies used for detection. Following 4 days of compound treatment, the respective plates were washed once with 25 μL of PBS (ThermoFisher #10010023) and fixed with 25 μL of 4% paraformaldehyde (ThermoFisher #28908) for 10 minutes at room temperature. The plates were then washed three times with 25 μL of PBS. Subsequent to that, the cells were permeabilized and blocked for 1 hour at room temperature in 25 μL of Perm/Block buffer comprised of IX PBS, 1% bovine serum albumin (ThermoFisher #A3294), 10% fetal bovine serum (ThermoFisher #A3160502), 0.3M glycine (Sigma #G7126), and 0.1% tween-20 (Sigma #P7949). This was followed by additional washing (three times) of the plates with 25 μL of 0.1% tween in PBS.
For the H3K27me3 assay, the cells were incubated overnight at 4° C. with 25 μL of H3K27me3 Primary Antibody (Cell Signaling #9733) diluted 1:200 in 0.1% tween-20 in PBS. […]

[2] = molecular target: T1, biotinylated AVI-tagged EED (76-441) (Homo sapiens, UniProt O75530); experiment: EED binding SPR assay; conditions: 1:1 binding model; read-out: KD, equilibrium dissociation constant as measured by surface plasmon resonance (SPR)
T1 construct: GST (N, cleaved yes); made in house; host or cells: E. coli BL21(DE3), co-expressed with pGro7
Method: Biotinylated AVI-tagged EED was produced using standard molecular biology techniques. A pGEX plasmid with a GST-preScission-cleavage-site-AVI-EED(76-441) sequence was placed into E. coli BL21(DE3) cells and co-expressed with pGro7. The E. coli were grown in shaker flasks in LB with ampicillin at 37° C. at 110 rpm to an OD600=0.7. At this time the temperature was lowered to 15° C. and IPTG was added to 0.3 mM. The cells were allowed to express overnight. Cells were then harvested.
For purification, the E. coli cell pellet was lysed into a buffer of 50 mM Tris pH 8.0, 500 mM NaCl, 5% glycerol and 5 mM DTT. The lysate was loaded onto a GSTrap FF column from GE Healthcare. After washing, the bound protein was eluted with 50 mM Tris pH 8.0, 500 mM NaCl, 5% glycerol, 5 mM DTT and 15 mM GSH. The collected fractions were combined and incubated with PreScission enzyme overnight at 4° C. The cleaved protein was then passed through a GSTrap FF column in a buffer of 50 mM Tris pH 8.0, 500 mM NaCl, 5% glycerol and 5 mM DTT. The cleaved protein was confirmed through mass spectrometry. The AVI-EED(76-441) was then buffer exchanged into 50 mM Bicine pH 8.3, 10 mM ATP, 10 mM magnesium acetate and 50 μM D-Biotin. 3 mg of BirA enzyme was added to the system and incubated at 4° C. for 2 hours to biotinylate the AVI-EED(76-441). The biotinylated-AVI-EED(76-441) was then buffer exchanged into 20 mM Tris pH 8.0 and 400 mM NaCl and passed through a size exclusion column of Superdex 200 16/60 Increase. The purified monomeric biotinylated-AVI-EED(76-441) was confirmed through SDS-PAGE, LC-MS and analytical size exclusion chromatography.
All surface plasmon resonance (SPR) assays were performed using a GE Biacore S200 utilizing GE Biotin CAPture chips. Capturing of CAP reagents was performed with a flow rate of 2 μL/min for 90 seconds. For protein capturing, a solution of 50 μg/mL of biotinylated AVI-tagged EED (76-441) in 10 mM HEPES pH 7.4, 150 mM NaCl, 0.05% Tween 20 and 2% DMSO (Running Buffer) was flowed over the chip with a flow rate of 5 μL/min for a contact time of 30 seconds. Final readings were 2200-2400 RU. For compounds, 7 concentrations were made with 3-dilutions using the Running Buffer for a total of 300 μL of each concentration in a 96-well microplate. During the binding experiments, a flow rate of […] was used for an association time of 90 seconds followed by a disassociation time of 180 seconds. The compartment temperature was set at 10° C. with the chip at 25° C. During regeneration the flow rate was set to 30 μL/min for 30 seconds. All fittings were done using a 1:1 binding model.

[3] = HEK293, 96 h, without elacridar, read-out: IC50, inhibitory activity on human P-glycoprotein HEK cells (HEK-P-gp)
[4] = HEK293, with 250 nM elacridar, read-out: IC50, inhibitory activity on human P-glycoprotein HEK cells (HEK-P-gp) pretreated with elacridar

T1 sequence (O75530 76-441 limits assumed): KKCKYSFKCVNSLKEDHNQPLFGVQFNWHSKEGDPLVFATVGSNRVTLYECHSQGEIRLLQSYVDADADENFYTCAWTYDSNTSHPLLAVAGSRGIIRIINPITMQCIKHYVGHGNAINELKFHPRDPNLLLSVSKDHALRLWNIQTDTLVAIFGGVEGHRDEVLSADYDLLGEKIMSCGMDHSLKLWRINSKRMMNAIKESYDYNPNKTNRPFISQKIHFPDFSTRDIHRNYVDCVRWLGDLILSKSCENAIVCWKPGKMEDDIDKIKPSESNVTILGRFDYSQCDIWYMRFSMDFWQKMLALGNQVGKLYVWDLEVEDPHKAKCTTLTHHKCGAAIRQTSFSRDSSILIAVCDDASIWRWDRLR

SMILES | Kd [2] | IC50 [1, 3] [nM] | IC50 [1, 4] [nM]
Fc1ccc2c3c1CNc1c(cc(-c4cnco4)c4nncn14)OC[C@@H]3CO2 [Compound 188, (S)-12-fluoro-4-(oxazol-5-yl)-7a,8,13,14-tetrahydro-7H-[1,2,4]triazolo[4′,3′:1,6]pyrido[3,2-b]benzofuro[4,3-fg][1,4]oxazonine] | < 2.5 nM | 100 to 500 | 100 to 500
CNC(=O)CCc1ccc(-c2cc3c(n4cnnc24)NCc2c(F)ccc4c2C(CO4)CO3)c(C)n1 [Compound 191, (S)-3-(5-(12-fluoro-7a,8,13,14-tetrahydro-7H-[1,2,4]triazolo[4′,3′:1,6]pyrido[3,2-b]benzofuro[4,3-fg][1,4]oxazonin-4-yl)-6-methylpyridin-2-yl)-N-methylpropanamide] | < 2.5 nM | 50 to 100 | 100 to 500
CC(=O)N1CC=C(c2cc3c(n4cnnc24)NCc2c(F)ccc4c2[C@@H](CO4)CO3)CC1 [Compound 193, (S)-1-(4-(12-fluoro-7a,8,13,14-tetrahydro-7H-[1,2,4]triazolo[4′,3′:1,6]pyrido[3,2-b]benzofuro[4,3-fg][1,4]oxazonin-4-yl)-3,6-dihydropyridin-1(2H)-yl)ethan-1-one] | < 2.5 nM | 25 to 50 | 50 to 100
Cc1ncc(O)cc1-c1cc2c(n3cnnc13)NCc1c(F)ccc3c1[C@@H](CO3)CO2 [Compound 194, (S)-5-(12-fluoro-7a,8,13,14-tetrahydro-7H-[1,2,4]triazolo[4′,3′:1,6]pyrido[3,2-b]benzofuro[4,3-fg][1,4]oxazonin-4-yl)-6-methylpyridin-3-ol] | < 2.5 nM | 50 to 100 | 50 to 100
Cn1nc(O)cc1-c1cc2c(n3cnnc13)NCc1c(F)ccc3c1C(CO3)CO2 [Compound 197, (S)-5-(12-fluoro-7a,8,13,14-tetrahydro-7H-[1,2,4]triazolo[4′,3′:1,6]pyrido[3,2-b]benzofuro[4,3-fg][1,4]oxazonin-4-yl)-1-methyl-1H-pyrazol-3-ol] | 10 to 50 nM and < 2.5 nM | < 25 | 50 to 100
CCOc1ncc(-c2cc3c(n4cnnc24)NCc2c(F)ccc4c2[C@H](CO4)CO3)cn1 [Example 109] | < 2.5 nM | 100 to 500 | 100 to 500

Further lines, with some results ahead:

Kd [2] | SMILES | IC50 [1, 3] [nM] | IC50 [1, 4] [nM]
< 2.5 nM | Cc1ncc(-c2cc3c(n4cnnc24)NCc2c(F)ccc4c2[C@@H](CO4)CO3)cc1N [Compound 179, (S)-5-(12-fluoro-7a,8,13,14-tetrahydro-7H-[1,2,4]triazolo[4′,3′:1,6]pyrido[3,2-b]benzofuro[4,3-fg][1,4]oxazonin-4-yl)-2-methylpyridin-3-amine] | > 500 | 100 to 500
< 2.5 nM | Cc1nc(O)ccc1-c1cc2c(n3cnnc13)NCc1c(F)ccc3c1[C@@H](CO3)CO2 [Compound 187, (S)-5-(12-fluoro-7a,8,13,14-tetrahydro-7H-[1,2,4]triazolo[4′,3′:1,6]pyrido[3,2-b]benzofuro[4,3-fg][1,4]oxazonin-4-yl)-6-methylpyridin-2-ol] | > 500 | > 500
< 2.5 nM | Cc1nc(C2CC2)ncc1-c1cc2c(n3cnnc13)NCc1c(F)ccc3c1[C@@H](CO3)CO2 [Compound 190, (S)-4-(2-cyclopropyl-4-methylpyrimidin-5-yl)-12-fluoro-7a,8,13,14-tetrahydro-7H-[1,2,4]triazolo[4′,3′:1,6]pyrido[3,2-b]benzofuro[4,3-fg][1,4]oxazonine] | < 25 | < 25
10 to 50 nM | Cc1nccc(O)c1-c1cc2c(n3cnnc13)NCc1c(F)ccc3c1C(CO3)CO2 [Compound 192, (S)-3-(12-fluoro-7a,8,13,14-tetrahydro-7H-[1,2,4]triazolo[4′,3′:1,6]pyrido[3,2-b]benzofuro[4,3-fg][1,4]oxazonin-4-yl)-2-methylpyridin-4-ol] | > 500 | > 500
< 2.5 nM | OCc1ncccc1-c1cc2c(n3cnnc13)NCc1c(F)ccc3c1C(CO3)CO2 [Compound 195, (S)-(3-(12-fluoro-7a,8,13,14-tetrahydro-7H-[1,2,4]triazolo[4′,3′:1,6]pyrido[3,2-b]benzofuro[4,3-fg][1,4]oxazonin-4-yl)pyridin-2-yl)methanol] | < 25 | 50 to 100
< 2.5 nM | Cn1ncc(O)c1-c1cc2c(n3cnnc13)NCc1c(F)ccc3c1C(CO3)CO2 [Compound 196, (S)-5-(12-fluoro-7a,8,13,14-tetrahydro-7H-[1,2,4]triazolo[4′,3′:1,6]pyrido[3,2-b]benzofuro[4,3-fg][1,4]oxazonin-4-yl)-1-methyl-1H-pyrazol-4-ol] | 25 to 50 | 50 to 100
5 to 10 nM | COc1nc(C)ccc1-c1cc2c(n3cnnc13)NCc1c(F)ccc3c1[C@H](CO3)CO2 [Example 105] | 100 to 500 | 100 to 500
< 2.5 nM | COc1ccc(-c2cc3c(n4cnnc24)NCc2c(F)ccc4c2[C@H](CO4)CO3)c(C)n1 [Example 106] | 50 to 100 | 25 to 50
< 2.5 nM | CN(C)c1ncc(-c2cc3c(n4cnnc24)NCc2c(F)ccc4c2[C@H](CO4)CO3)cn1 [Example 108] | > 500 | > 500
